Laboratory results reported in patent US5955616A, “Pyrrolidine derivatives having phospholipase A2 inhibitory activity” (Shionogi & Co., Ltd., priority 1995, dated 1999).

Columns and labels:
[1] = molecular target: T1, cPLA2 (Homo sapiens, UniProt P47712); experiment: cPLA2 Inhibitory activity (release of radiolabelled fatty acid from liposomes); assay type: biochemical; conditions: 50 mM HEPES pH 7.4, 1 mM CaCl2, 2.5 μM radio-labeled phosphatidylcholine, 15 min at 37° C; read-out: cPLA2 Inhibition Activity IC50
T1 sequence (P47712 1-749): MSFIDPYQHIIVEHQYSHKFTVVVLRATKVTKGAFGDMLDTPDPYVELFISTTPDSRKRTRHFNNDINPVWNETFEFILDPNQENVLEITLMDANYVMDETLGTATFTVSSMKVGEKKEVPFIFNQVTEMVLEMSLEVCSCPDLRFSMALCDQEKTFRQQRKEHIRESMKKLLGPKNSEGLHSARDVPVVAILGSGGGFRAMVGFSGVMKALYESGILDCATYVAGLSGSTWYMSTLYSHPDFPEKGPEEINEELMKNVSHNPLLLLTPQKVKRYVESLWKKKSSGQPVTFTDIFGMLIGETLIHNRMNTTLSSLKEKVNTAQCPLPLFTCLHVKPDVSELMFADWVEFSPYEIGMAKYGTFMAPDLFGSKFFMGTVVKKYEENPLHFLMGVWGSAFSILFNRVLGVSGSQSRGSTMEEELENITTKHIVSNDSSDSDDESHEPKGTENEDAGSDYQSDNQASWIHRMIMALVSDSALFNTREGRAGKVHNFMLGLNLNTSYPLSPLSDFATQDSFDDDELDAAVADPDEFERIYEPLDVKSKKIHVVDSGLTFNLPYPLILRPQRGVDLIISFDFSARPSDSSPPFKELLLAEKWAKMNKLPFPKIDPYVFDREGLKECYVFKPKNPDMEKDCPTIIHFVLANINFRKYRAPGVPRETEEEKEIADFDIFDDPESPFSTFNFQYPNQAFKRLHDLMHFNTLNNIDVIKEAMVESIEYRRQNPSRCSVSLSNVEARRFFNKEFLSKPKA
Method: Experiment 1 cPLA2 Inhibitory activity
The compounds of the present invention was tested for the cPLA2 inhibitory activity by a method known in a literature (R. M. Kramer, E. F. Roberts, J. Manetta and J. E. Putnam, J. Biol. Chem., 268(8), 5268-5272 ([…])), as outlined below.
As a substrate, liposomes which contain 1-palmitoyl-2-[^14 C]-arachidonoyl-sn-glycero-3-phosphocholine and sn-1,2-dioleoylglycerol at the ratio of 2:1 and have treated ultrasonically were used. The substrate was added to a 50 mM HEPES buffer (pH 7.4) (200 μl) containing 1 mM CaCl2, 2 mM dithiothreitol, 150 mM NaCl, 0.1 mg/ml BSA so as to make the concentration of radio-labeled phosphatidylcholine 2.5 μM. To the solution was added a compound of the present invention in DMSO (10 μl) to obtain reaction solutions each containing the test compound at 250 μM, 50 μM, 10 μm, 2 μM, and 0.4 μM. The reaction was allowed to start by adding an enzyme (cPLA2) (4 ng) and continued for 15 min at 37° C.
The amount of fatty acids released by the reaction was measured on a liquid scintillation counter. Control was obtained by conducting the experiment in the same manner except that a compound of the present invention was not added. The inhibitory activity was expressed as percent (%) to the control value, which was used for the calculation of the concentration required for 50% inhibition (IC50, μM).

[2] = system: Prostaglandin E2 production in human fibroblasts; experiment: Inhibition of Production of Prostaglandin E2 in Human Fibroblasts (IL-1 stimulated); assay type: cell-based; conditions: Fibroblast, stimulation with IL-1, read-out: Inhibitory activity Against the Production of Prostaglandin E2 in Human Fibroblasts IC50
Method: Experiment 2 Inhibition of Production of Prostaglandin E2 in Human Fibroblasts
From this viewpoint, the compounds of the present invention were tested for the effect on the production of prostaglandin E2 by human fibroblasts under the stimulation with IL-1 according to the method of J. M. Dayer et al (CACHECTIN/TUMOR NECROSIS FACTOR STIMULATES COLLAGENASE AND PROSTAGLANDIN E2 PRODUCTION BY HUMAN SYNOVIAL CELLS AND DERMAL FIBROBLASTS; J. M. Dayer, B. Beutlerm and A. Cerami, J. Exp. Med., 162,2163-2168, 1985).

SMILES | IC50 [1] | IC50 [2]
O=C1NC(=S)SC1=Cc1ccc(NC(=O)[C@@H]2C[C@H](SCc3ccccc3)CN2C(=O)Nc2ccccc2)cc1 [Compound A-28] | 8.3 µM | 0.73 µM
O=C1NC(=O)C(=Cc2ccc(NC(=O)[C@@H]3C[C@H](SCc4ccc(C(F)(F)F)cc4)CN3C(=O)c3ccccc3)cc2)S1 [Compound A-7] | 5.3 µM | 4.5 µM
O=C1NC(=S)S/C1=C\c1ccc(NC(=O)[C@@H]2C[C@H](SCc3ccccc3)CN2S(=O)(=O)c2ccc(Cc3ccccc3)cc2)cc1 [Compound A-48] | 4.9 µM | 8.7 µM
CC(=O)Nc1ccc(S(=O)(=O)N2C[C@@H](SCc3ccccc3)C[C@H]2C(=O)Nc2ccc(/C=C3\SC(=S)NC3=O)cc2)cc1 [Compound A-38] | 6.4 µM | 4.9 µM
O=C1NC(=S)S/C1=C\c1ccc(NC(=O)[C@@H]2C[C@H](SCc3ccccc3)CN2S(=O)(=O)c2ccc(-c3ccccc3)cc2)cc1 [Compound A-43] | 6.8 µM | 8.8 µM
N#CCCCOc1ccc(CS[C@H]2C[C@@H](C(=O)Nc3ccc(/C=C4\SC(=S)NC4=O)cc3)N(S(=O)(=O)Cc3ccc(Br)cc3)C2)cc1 [Compound A-56] | 1.9 µM | 0.93 µM
O=C1NC(=S)SC1=Cc1ccc(NC(=O)[C@@H]2C[C@H](SCc3ccccc3)CN2C(=O)c2cccnc2)cc1 [Compound A-23] | 10 µM | 8.6 µM
CS[C@H]1C[C@@H](C(=O)Nc2ccc(C=C3SC(=S)NC3=O)cc2)N(C(=O)Cc2ccc(Br)cc2)C1 [Compound A-26] | 2.8 µM | 1.8 µM
CC(=O)Nc1c(Cl)cc(S(=O)(=O)N2C[C@@H](SCc3ccccc3)C[C@H]2C(=O)Nc2ccc(/C=C3\SC(=S)NC3=O)cc2)cc1Cl [Compound A-37] | 1.6 µM | 6.9 µM
CC(C)=CCCC(C)=CCS[C@H]1C[C@@H](C(=O)Nc2ccc(C=C3SC(=O)NC3=O)cc2)N(C(=O)c2ccccc2)C1 [Compound A-11] | 4.7 µM | 8.5 µM
O=C1NC(=S)SC1=Cc1ccc(NC(=O)[C@@H]2C[C@H](SCc3ccccc3)CN2C(=S)Nc2ccccc2)cc1 [Compound A-29] | 5.9 µM | 1.2 µM
O=C1NC(=O)C(=Cc2ccc(NC(=O)[C@@H]3C[C@H](SC(c4ccccc4)c4ccccc4)CN3C(=O)c3ccccc3)cc2)S1 [Compound A-12] | 1.3 µM | 1.6 µM
COc1cc(CS[C@H]2C[C@@H](C(=O)Nc3ccc(/C=C4\SC(=O)NC4=O)cc3)N(S(=O)(=O)c3ccc(-c4ccccc4)cc3)C2)cc(OC)c1OC [Compound A-46] | 7 µM | 1.5 µM
CS[C@H]1C[C@@H](C(=O)Nc2ccc(C=C3SC(=S)NC3=O)cc2)N(C(=O)c2ccc(-c3ccccc3)cc2)C1 [Compound A-21] | 18 µM | 1 µM
CC(C)(C)OC(=O)N1C[C@@H](SC(c2ccccc2)(c2ccccc2)c2ccccc2)C[C@H]1C(=O)Nc1ccc(/C=C2\OC(=S)NC2=O)cc1 [Compound A-62] | 4.3 µM | 2.2 µM
CS[C@H]1C[C@@H](C(=O)Nc2ccc(C=C3SC(=O)NC3=O)cc2)N(C(=O)c2ccc(-c3ccccc3)cc2)C1 [Compound A-20] | 22 µM | 0.3 µM
O=C1NC(=S)S/C1=C\c1cn(NC(=O)[C@@H]2C[C@H](SCc3ccccc3)CN2C(=O)c2ccccc2)c2ccccc12 [Compound A-60] | 6.1 µM | 1.3 µM
CC(C)S[C@H]1C[C@@H](C(=O)Nc2ccc(C=C3SC(=S)NC3=O)cc2)N(C(=O)Cc2ccc(Br)cc2)C1 [Compound A-27] | 5.1 µM | 2.6 µM
O=C1NC(=S)S/C1=C\c1ccc(NC(=O)[C@@H]2C[C@H](SCc3ccccc3)CN2S(=O)(=O)Cc2ccc(F)cc2)cc1 [Compound A-55] | 3.4 µM | 1.1 µM
CS[C@H]1C[C@@H](C(=O)Nc2ccc(C=C3SC(=O)NC3=O)cc2)N(C(=O)Cc2ccc(Br)cc2)C1 [Compound A-25] | 18 µM | 8 µM
O=C1NC(=O)C(=Cc2ccc(NC(=O)[C@@H]3C[C@H](SCc4ccccc4)CN3C(=O)c3ccccc3)cc2)S1 [Compound A-3] | 5.3 µM | 2.4 µM
O=C1NC(=S)O/C1=C\c1cn(NC(=O)[C@@H]2C[C@H](SCc3ccccc3)CN2C(=O)c2ccccc2)c2ccccc12 [Compound A-61] | 1.6 µM | 10 µM
O=C1NC(=O)C(=Cc2ccc(NC(=O)[C@@H]3C[C@H](SCc4ccc(-c5ccccc5)cc4)CN3C(=O)c3ccccc3)cc2)S1 [Compound A-6] | 3.3 µM | 8.2 µM
CC(C)(C)c1ccc(S(=O)(=O)N2C[C@@H](SCc3ccccc3)C[C@H]2C(=O)Nc2ccc(/C=C3\SC(=S)NC3=O)cc2)cc1 [Compound A-39] | 6.2 µM | 6 µM

Continued, in another order:

IC50 [1] | SMILES | IC50 [2]
30 µM | CS[C@H]1C[C@@H](C(=O)Nc2ccccc2/C=C2\SC(=O)NC2=O)N(S(=O)(=O)c2ccc(-c3ccccc3)cc2)C1 [Compound C-1] | 6.1 µM
4.9 µM | O=C1C=CC(=O)C(CCCCCCC(=O)N2C[C@@H](OC(c3ccccc3)c3ccccc3)C[C@H]2CNC(=O)c2ccc(/C=C3\SC(=O)NC3=O)cc2)=C1 [Compound H-17] | 7 µM
2.9 µM | O=C1NC(=O)C(=Cc2ccc(C(=O)NC[C@@H]3C[C@H](NC(=O)c4ccc(Cn5sccc5=O)cc4)CN3S(=O)(=O)c3ccc(-c4ccccc4)cc3)cc2)S1 [Compound J-2] | 9.7 µM
7 µM | O=C1NC(=O)C(=C(CO)c2ccc(NC(=O)[C@@H]3C[C@H](SCc4ccccc4)CN3S(=O)(=O)c3ccc(-c4ccccc4)cc3)cc2)S1 [Compound D-2] | 5.7 µM
2.4 µM | O=C1NC(=O)/C(=C/c2ccc(C(=O)NC[C@@H]3C[C@H](SC(c4ccccc4)(c4ccccc4)c4ccccc4)CN3C(=O)OCc3ccc([N+](=O)[O-])cc3)cc2)S1 [Compound B-4] | 4.6 µM
22 µM | CS[C@H]1C[C@@H](C(=O)Nc2ccc(C(CO)=C3SC(=O)NC3=O)cc2)N(S(=O)(=O)c2ccc(-c3ccccc3)cc2)C1 [Compound D-1] | 3.6 µM
0.46 µM | O=C1NC(=O)/C(=C/c2ccc(C=CC[C@@H]3C[C@H](SC(c4ccccc4)(c4ccccc4)c4ccccc4)CN3C(=O)CCc3ccccc3)cc2)S1 [Compound E-2] | 6 µM
3.7 µM | O=C1NC(=O)/C(=C/c2ccc(CCC[C@@H]3C[C@H](SC(c4ccccc4)c4ccccc4)CN3C(=O)CCc3ccccc3)cc2)S1 [Compound E-4] | 1.9 µM
9.8 µM | COC(=O)CCc1cc(C=C2SC(=O)NC2=O)cc(NC(=O)C2CC(OC(c3ccccc3)c3ccccc3)CN2C(=O)c2ccccc2)c1 (stereo not drawn) [Compound C-5] | 1.2 µM
4.3 µM | N#CC(=S)Nc1ccc(C(=O)N2C[C@@H](OC(c3ccccc3)c3ccccc3)C[C@H]2CNC(=O)c2ccc(/C=C3\SC(=O)NC3=O)cc2)cc1 [Compound H-11] | 8.5 µM
10 µM | O=C1NC(=O)/C(=C/c2ccc(C(=O)NC[C@@H]3C[C@H](OC(c4ccccc4)c4ccccc4)CN3C(=O)c3ccc(CN4CCCC4=O)cc3)cc2)S1 [Compound H-10] | 2.4 µM
11 µM | O=C1NC(=O)/C(=C/c2ccc(C(=O)NC[C@@H]3C[C@H](OCc4ccc(F)cc4F)CN3C(=O)CCCCCCC3=CC(=O)c4ccccc4C3=O)cc2)S1 [Compound H-18] | 1.5 µM
